Measured values from the NIST ThermoML archive (doi:10.1007/s10765-007-0223-x).

Assay: xn = mol fraction of the nth substance listed
Conditions: 101 kPa, Liquid; for speed of sound: Single path-length method

COC(C)(C)C [2-methoxy-2-methylpropane] + Cc1ccccc1
Conditions | mass density, 315.65 K [kg/m3] | mass density, 318.15 K [kg/m3] | mass density, 320.65 K [kg/m3] | mass density, 323.15 K [kg/m3] | speed of sound, 315.65 K [m/s] | speed of sound, 318.15 K [m/s] | speed of sound, 320.65 K [m/s] | speed of sound, 323.15 K [m/s]
x1 = 0.053 | 838.757 | 836.384 | 834.008 | 831.624 | – | 1203.4 | 1192.9 | 1182.4
x1 = 0.116 | 830.517 | 828.127 | 825.73 | 823.329 | – | 1185.8 | 1175.2 | 1164.6
x1 = 0.199 | 819.682 | 817.267 | 814.847 | 812.42 | – | 1164.7 | 1154.1 | 1143.5
x1 = 0.301 | 806.341 | 803.893 | 801.438 | 798.979 | – | 1137.8 | 1127 | 1116.4
x1 = 0.371 | 797.359 | 794.887 | 792.407 | 789.92 | – | 1118.5 | 1107.7 | 1097
x1 = 0.463 | 785.32 | 782.821 | 780.31 | 777.787 | – | 1094.2 | 1083.4 | 1072.5
x1 = 0.61 | 766.457 | 763.899 | 761.327 | 758.745 | 1065.8 | 1054.8 | 1043.8 | 1032.9
x1 = 0.688 | 756.499 | 753.908 | 751.303 | 748.686 | 1044.9 | 1033.8 | 1022.8 | 1011.9
x1 = 0.797 | 742.532 | 739.897 | 737.246 | 734.592 | 1015.6 | 1004.6 | 993.5 | 982.48
x1 = 0.902 | 729.096 | 726.409 | 723.713 | 721 | 986.8 | 975.59 | 964.4 | 953.28
x1 = 0.943 | 723.661 | 720.958 | 718.237 | 715.503 | 974.25 | 963 | 951.77 | 940.59
x1 = 1 | 715.636 | 712.897 | 710.141 | 707.381 | 956.8 | 945.54 | 934.24 | 922.97
